We go through 24 molecules from patent US20050250819A1 (priority 2004, published 2005).

For the assay, the system named is Type III protein secretion of the chimeric SopE‘-’Bla polypeptide (SPI1 type III protein secretion system). In words: Primary assay: Type III protein secretion of the chimeric SopE'-'Bla polypeptide by Salmonella enterica. The assay is classed as cell-based. To be noted: read-out: SopE IC50(μM). The source says:
Primary assay: Type III protein secretion of the chimeric SopE‘-’Bla polypeptide by Salmonella enterica. This procedure is a cell-based assay that measures the type III-dependent secretion by Salmonella enterica of a plasmid-encoded chimeric polypeptide whose synthesis can be regulated, and which is endowed with an enzymatic activity that can be monitored colorimetrically by hydrolysis of a substrate that is unable to penetrate into the bacterial cytoplasm within the time constraints of the reaction. Thus, the colormetric reaction is not influenced by SopE‘-’Bla polypeptide in the bacterial cytplasm. Instead, it effectively measures the amount of polypeptide that has been secreted from the S. enterica cytoplasm to the extracellular medium via type III system protein secretion.
The SopE‘-’Bla recombinant polypeptide consists of two functionally distinct domains spliced together. The N-terminus domain is encoded by a polynucleotide region specifying the signal for type III secretion of the SopE polypeptide of S. enterica, an effector of the SPI1 type III protein secretion system. The C-terminus domain of SopE‘-’Bla consists of a 263 amino acid peptide sequence that corresponds to the TEM-1 β-lactamase expressed by plasmid pBR322 but without its N-terminal signal sequence. The TEM-1 β-lactamase part of the SopE‘-’Bla chimeric polypeptide is used as a reporter enzyme. It is capable of hydrolyzing nitrocefin resulting in a product whose accumulation can be monitored by colorimetric detection. The secretion of the SopE‘-’Bla chimeric polypeptide from the cytoplasm to the extracellular medium is dependent on type III protein secretion.
For this procedure, cells grown under conditions known to favor a functional SPI1 secretion system are induced for expression of the SopE‘-’Bla protein and grown either in the presence or in the absence of putative inhibitors for determined time. Nitrocefin is then added to the various cultures and its hydrolysis are used for quantitation. An inhibitor of Type III protein secretion is generally a compound that reduces the signal of the enzymatic reaction by decreasing the amount of SopE‘-’Bla secreted into the extracellular medium.
What is called IC50 is the midpoint of a concentration-inhibition curve. As to `O=C(N[C@@H](Cc1ccc(Cl)cc1)C(=O)O)/C(=C\c1cccc(C(F)(F)F)c1)NC(=O)c1ccc(OC(F)(F)F)cc1` [Compound 37, (S)-3-(4-Chlorophenyl)-2-[2-(4-trifluoromethoxybenzoylamino)-3-(3-trifluoromethylphenyl)acryloylamino]propionic acid], the IC50 worked out at 25 µM.
Then `CC(C)(S)C(NC(=O)/C(=C\c1ccc(-c2ccccc2)cc1)NC(=O)c1ccc(-c2ccccc2)cc1)C(=O)O` (stereo not drawn) [Compound 126], with 3 µM; and `O=C(O)[C@H](Cc1ccc(Cl)cc1)NC(=O)N(CCc1ccc(-c2ccccc2)cc1)Cc1ccc(Cl)c(Cl)c1` (stereo in doubt) [Compound 86, 2-[3-(2-Biphenyl-4-yl-ethyl)-3-(3,4-dichlorobenzyl)ureido]-3-(4-chlorophenyl)-propionic acid], with 1.1 µM.
Turning to `O=C(O)[C@H](COCc1ccccc1)NC(=O)N(CCc1ccc(-c2ccccc2)cc1)Cc1ccc(Cl)c(Cl)c1` [Compound 89, (S)-3-Benzyloxy-2-[3-(2-biphenyl-4-yl-ethyl)-3-(3,4-dichlorobenzyl)ureido]propionic acid], the IC50 is 2.1 µM.
As to `O=C(N[C@@H](CSCc1ccccc1)C(=O)O)/C(=C\c1ccc(OCc2ccncc2)cc1)NC(=O)c1ccc(C(F)(F)F)cc1` [Compound 59, (R)-3-Benzylsulfanyl-2-[3-[4-(pyridin-4-yl-methoxy)phenyl]-2-(4-trifluoromethyl-benzoylamino)acryloylamino]propionic acid], the IC50 stood at 73.4 µM.
On to `Cn1cc(C(=O)N/C(=C/c2cccc(C(F)(F)F)c2)C(=O)N[C@H](COCc2ccccc2)C(=O)O)c2ccccc21` [Compound 70, (R)-3-Benzyloxy-2-[2-[(1-methyl-1H-indole-3-carbonyl)amino]-3-(3-trifluoromethylphenyl)acryloylamino]propionic acid], for which the IC50 was determined as 86.3 µM.
On to `O=C(N[C@H](COCc1ccccc1)C(=O)O)/C(=C\c1ccc(-c2ccccc2)cc1)NC(=O)c1ccc(C(F)(F)F)cc1` [Compound 24, (R)-3-Benzyloxy-2-[3-biphenyl-4-yl-2-(4-trifluoromethylbenzoylamino)-acryloylamino]propionic acid], for which the 50% inhibitory concentration (IC50) stood at 12.5 µM.
Then `O=C(N[C@H](COCc1ccccc1)C(=O)O)/C(=C\c1ccc(Br)cc1)NC(=O)C1CCN(c2nccc(C(F)(F)F)n2)CC1` [Compound 80, (R)-3-Benzyloxy-2-(3-(4-bromophenyl)-2-{[1-(4-trifluoromethylpyrimidin-2-yl)-piperidine-4-carbonyl]amino}acryloylamino)propionic acid], with 38.5 µM; and `O=C(N[C@H](COCc1ccccc1)C(=O)O)/C(=C\c1ccc(Cl)c(Cl)c1)NC(=O)c1cc2ccccc2s1` [Compound 68, (R)-2-[2-[(Benzo[b]thiophene-2-carbonyl)amino]-3-(3,4-dichlorophenyl)-acryloylamino]-3-benzyloxypropionic acid], with 52 µM.
Consider `O=C(N/C(=C/c1ccc(Cl)c(Cl)c1)C(=O)N1CCCCC1C(=O)O)c1ccc(-c2ccccc2)cc1` (stereo not drawn) [Compound 107], for which the IC50 came out at 8 µM.
In the case of `CN(C(=O)/C(=C\c1cccc(C(F)(F)F)c1)NC(=O)c1ccc(-c2ccccc2)cc1)[C@H](Cc1ccc(Cl)cc1)C(=O)O` [Compound 42, (R)-2-{[2-[(Biphenyl-4-carbonyl)amino]-3-(3-trifluoromethylphenyl)acryloyl]-methylamino}-3-(4-chlorophenyl)propionic acid], the IC50 was determined as 15 µM.
Then `O=C(N[C@@H](Cc1ccc(Cl)cc1)C(=O)O)/C(=C\c1ccc(OC(F)(F)F)cc1)NC(=O)C1CCN(c2nccc(C(F)(F)F)n2)CC1` [Compound 85, (S)-3-(4-Chlorophenyl)-2-(3-(4-trifluoromethoxyphenyl)-2-{[1-(4-trifluoromethyl-pyrimidin-2-yl)piperidine-4-carbonyl]amino}acryloylamino)propionic acid], with 35.2 µM.
With `O=C(N[C@H](CSCc1ccccc1)C(=O)O)/C(=C\c1ccc(Cl)c(Cl)c1)NC(=O)c1cc2ccccc2s1` [Compound 67, (S)-2-[2-[(Benzo[b]thiophene-2-carbonyl)amino]-3-(3,4-dichlorophenyl)-acryloylamino]-3-benzylsulfanylpropionic acid], the IC50 stood at 27 µM.
On to `Cc1ccc(/C=C(/NC(=O)c2ccc(-c3ccccc3)cc2)C(=O)NC(C(=O)O)C(C)(C)S)s1` (stereo not drawn) [Compound 93], for which the IC50 came to 1.4 µM.
Then `O=C(NC1(C(=O)O)CCCCC1)/C(=C\c1ccc(Cl)c(Cl)c1)NC(=O)c1ccc(-c2ccccc2)cc1` [Compound 114], with 7.3 µM; and `CC(C)(S)C(NC(=O)/C(=C\c1ccc(Cl)c(Cl)c1)NC(=O)c1ccc(C(F)(F)F)cc1)C(=O)O` (stereo not drawn) [Compound 120], with 22.7 µM.
`O=C(N[C@H](COCc1ccccc1)C(=O)O)/C(=C\c1ccc(Cl)c(Cl)c1)NC(=O)C1CCN(c2nccc(C(F)(F)F)n2)CC1` [Compound 73, (R)-3-Benzyloxy-2-(3-(3,4-dichlorophenyl)-2-{[1-(4-trifluoromethylpyrimidin-2-yl)-piperidine-4-carbonyl]amino}acryloylamino)propionic acid]: the half-inhibitory concentration (IC50) came out at 12.8 µM.
As to `CC(C)(S)C(NC(=O)/C(=C\c1ccc(Cl)c(Cl)c1)NC(=O)c1ccccc1)C(=O)O` (stereo not drawn) [Compound 115], the IC50 turned out to be 61.6 µM.
Then `O=C(NC(Cc1ccc(Cl)cc1)C(=O)O)/C(=C\c1ccc(Cl)c(C(F)(F)F)c1)CC(=O)c1ccc(-c2ccccc2)cc1` (stereo not drawn) [Compound 5, 2-[2-(2-Biphenyl-4-yl-2-oxoethyl)-3-(4-chloro-3-trifluoromethylphenyl)-acryloylamino]-3-(4-chlorophenyl)propionic acid], with 0.8 µM; and `O=C(NC(Cc1ccc(F)cc1)C(=O)O)/C(=C\c1cccc(C(F)(F)F)c1)NC(=O)c1ccc(-c2ccccc2)cc1` (stereo not drawn) [Compound 71, 2-[2-[(Biphenyl-4-carbonyl)amino]-3-(3-trifluoromethylphenyl)acryloylamino]-3-(4-fluorophenyl)propionic acid], with 34.2 µM.
With `O=C(N[C@@H](Cc1ccc(Cl)cc1)C(=O)O)/C(=C\c1ccc(Br)cc1)NC(=O)C1CCN(c2nccc(C(F)(F)F)n2)CC1` [Compound 82, (S)-2-(3-(4-Bromophenyl)-2-{[1-(4-trifluoromethylpyrimidin-2-yl)piperidine-4-carbonyl]amino}acryloylamino)-3-(4-chlorophenyl)propionic acid], the IC50 worked out at 27.8 µM.
Under `O=C(N[C@@H](Cc1ccc(Cl)cc1)C(=O)O)/C(=C\c1ccc(Oc2ccccc2)cc1)NC(=O)c1ccc(C(F)(F)F)cc1` [Compound 16, (S)-3-(4-Chlorophenyl)-2-[3-(4-phenoxyphenyl)-2-(4-trifluoromethylbenzoylamino)-acryloylamino]propionic acid] stands 4.9 µM; under `O=C(N[C@@H](Cc1ccc(Cl)cc1)C(=O)O)/C(=C\c1ccc(-c2ccccc2)cc1)NC(=O)c1ccc(C(F)(F)F)cc1` [Compound 25, (S)-2-[3-Biphenyl-4-yl-2-(4-trifluoromethylbenzoylamino)acryloylamino]-3-(4-chlorophenyl)propionic acid], 6 µM; under `O=C(N[C@@H](CSCc1ccccc1)C(=O)O)/C(=C\c1cccc(Oc2ccccc2)c1)NC(=O)c1ccc(Cl)cc1` [Compound 43, (R)-3-Benzylsulfanyl-2-[2-(4-chlorobenzoylamino)-3-(3-phenoxyphenyl)-acryloylamino]propionic acid], 34.2 µM.
